Experimental data: patent publication US20160075991A1, “Process for Preparing Starter Cultures of Lactic Acid Bacteria” (INSTITUT NATIONAL DE LA RECHERCHE, priority 1998, published 2016)

Assays:
Format in all cases: cell-based
[1] = tested on: Lactococcus lactis subsp. cremoris strain MG1363; assay: Culturing in the presence of chlorophyllin (Example 1.3); conditions: cultures in the presence of chlorophyllin, not shaken
Experimental: A laboratory medium (M17 supplemented with 1% glucose) is inoculated with the Lactococcus lactis subsp. cremoris strain MG1363 in the form of a 1/1000 dilution of a saturated culture (prepared at 30° C. with no shaking). The inoculated medium contained or not chlorophyllin (a degradation product of chlorophyll) at a final concentration of 10 μg/ml. In order for it to be active, the chlorophyllin was incubated beforehand in an acidic medium and in the presence of traces of iron in order to replace the Cu atom with an Fe atom. This can, for example, be done as follows: a) by incubating a concentrated solution of chlorophyllin for 24 h in a laboratory medium (M17 supplemented with glucose) which was inoculated with 10^6 lactococci per ml and maintained at 30° C. for 24 h. The supernatant containing the chlorophyllin at a concentration of 100 μg/ml is filtered and then added to the culture medium so as to obtain a final concentration of 10 μg/mi. b) by incubating a concentrated solution of chlorophyllin for 24 h in M17 at a pH of between 3 and 5 (acidified with HCl) and at a temperature of 4° C., 30° C. or 60° C. The pH is then readjusted to 7. […] The pH is then readjusted to 7. […]

[2] = tested on: Lactococcus lactis subsp. cremoris strain MG1363; assay: Culturing in the presence of protoporphyrin IX (Example 1.2); conditions: for Concentration of lactic acid / Final pH / Number of viable cells / OD600 nm: 1% glucose, 24 h
Experimental: A laboratory medium (M17 supplemented with 1% glucose) is inoculated with the Lacrococcus lactis subsp. cremoris strain MG1363 in the form of a 1/1000 dilution of a saturated culture (prepared at 30° C. with no shaking). The inoculated medium contained or not protoporphyrin IX at a final concentration of 10 μg/ml (a 0.5 mg/ml stock solution is prepared by adding 100 mg of protoporphyin IX to 2 ml of 5N NaOH, to which 198 ml of water is then added; the solution is autoclaved at 120° C. for 20 minutes). For bacteria grown in medium containing protoporphyrin IX, cultures were maintained at 30° C. with shaking (250 rotations per minute) in order to ensure oxygenation, or without shaking as a control. Two other control cultures, without protoporphyin IX or without shaking, were grown at 30° C. in parallel. After 24 h of growth, aliquots are removed to measure the optical density at 600 nm (OD600 nm), the number of viable bacteria, the final pH and the concentration of lactate in the medium.

[3] = tested on: Lactococcus lactis subsp. cremoris strain MG1363; assay: Survival of the lactic acid bacteria during storage at 4° C. (Example 3); conditions: for Number of cells per ml: porphyrin compound and aeration, 1% glucose M17, storage at 4° C.
Experimental: A laboratory medium, i.e. M17 supplemented with 1% of glucose, is inoculated with Lactococcus lactis subsp. cremoris strain MG1363 in the form of a 1/1000 dilution of a saturated culture. The cultures are then divided into two equal parts, and hemin is added to one of these two cultures to give a final concentration of 10 μg/ml. […] Aliquots of the two cultures are removed regularly during the exponential growth phase in order to monitor viability, rate of growth and pH. After 24 h of growth, the cultures are placed (stored) in a 30° C. incubator without shaking, and aliquots are removed every 24 h in order to monitor the viability of the cells. The Lactococcus lactis subsp. cremoris strain MG1363 was cultured as in the experiment described in Example 2, but the storage, which is carried out 24 h after inoculation, is at 4° C. instead of at 30° C.

[4] = with protoporphyrin IX 10 μg/ml and aeration
[5] = with protoporphyrin IX 10 μg/ml but without aeration

With chlorophyllin the “variation of OD600 nm and pH from the control” value [1] was “No significant variation from the control”.

C=CC1=C(C)c2cc3[nH]c(cc4nc(cc5[nH]c(cc1n2)c(C)c5CCC(=O)O)C(CCC(=O)O)=C4C)c(C)c3C=C [protoporphyrin IX] was tested, and the “production of lactic acid as share of the quantity of sugar added” value ([2]; cells cultured in the presence of protoporphyrin IX and oxygen) was “less than 40%”, the “pH of the culture (remains stable)” value ([2]; protoporphyrin IX and oxygen) was “approximately 5.5” and the “Concentration of lactic acid” value [2, 4] was 1.9 g/L. For the same compound, the “Final pH” value [2, 4] was 5.49, the “Number of viable cells” value [2, 4] was 6.9 ×10^9 and the OD600 nm [2, 4] was 4.6. For the same compound, the “Concentration of lactic acid” value [2, 5] was 8.2 g/L, the “Final pH” value [2, 5] was 4.53 and the “Number of viable cells” value [2, 5] was 2.7 ×10^9. The OD600 nm [2, 5] was 2.5, the survival rate ([3]; after 2 months at 4° C., cultured with porphyrin compound under aeration) was ~1% and the “Number of cells per ml” value ([3]; 0 days after culture) was 6.4 × 10^9 cells per ml. The “Number of cells per ml” value ([3]; 1 day after culture) was 6.2 × 10^9 cells per ml, the “Number of cells per ml” value ([3]; 2 days after culture) was 5.6 × 10^9 cells per ml and the “Number of cells per ml” value ([3]; 3 days after culture) was 5.4 × 10^9 cells per ml. The “Number of cells per ml” value ([3]; 7 days after culture) was 4.0 × 10^9 cells per ml, the “Number of cells per ml” value ([3]; 8 days after culture) was 2.8 × 10^9 cells per ml and the “Number of cells per ml” value ([3]; 9 days after culture) was 1.9 × 10^9 cells per ml. The “Number of cells per ml” value ([3]; 10 days after culture) was 3.9 × 10^8 cells per ml, the “Number of cells per ml” value ([3]; 13 days after culture) was 1.7 × 10^8 cells per ml and the “Number of cells per ml” value ([3]; 15 days after culture) was 6.0 × 10^7 cells per ml. The “Number of cells per ml” value ([3]; 22 days after culture) was 5.9 × 10^7 cells per ml, the “Number of cells per ml” value ([3]; 28 days after culture) was 5.4 × 10^7 cells per ml and the “Number of cells per ml” value ([3]; 36 days after culture) was 5.4 × 10^7 cells per ml. The “Number of cells per ml” value ([3]; 43 days after culture) was 5.3 × 10^7 cells per ml, the “Number of cells per ml” value ([3]; 50 days after culture) was 4.8 × 10^7 cells per ml and the “Number of cells per ml” value ([3]; 57 days after culture) was 5.3 × 10^7 cells per ml.
